Measurements: publication PMC3615092, “Identification, Design and Bio-Evaluation of Novel Hsp90 Inhibitors by Ligand-Based Virtual Screening” (PLoS ONE, 2013)

How the values were obtained:
Hsp90 [1] = target: T1, Hsp90 (Homo sapiens, UniProt P07900); test: Malachite green assay of Hsp90 ATPase activity; type: biochemical; conditions: by malachite green assay
T1 construct: The region encoding full-length Hsp90 was subcloned into pET28a; inferred from the pET28a vector and Ni-NTA purification; made in house; host or cells: E. coli
Procedure: The region encoding full-length Hsp90 was subcloned into pET28a. Protein expression in E. coli cells were induced with 0.5 mM IPTG. Cells were harvested after 20h of growth at 16°C and then disrupted by sonication. The soluble lysate was clarified by centrifugation and applied to a Ni^2+-nitrilo-triacetic acid (NTA) agarose column in a buffer (50 mM Tris-Cl, 300 mM NaCl, 10 mM Imidazole, 10% [v/v] Glycerol, 10 mM PMSF, 10 mM DTT). Hsp90 Protein was eluted with a linear gradient of 20–1000 mM imidazole. Hsp90 was identified by SDS-PAGE, and the high concentrated fraction was dialyzed against ATPase buffer (20 mM Tris-Cl, pH 7.5; 6 mM MgCl2; 20 mM KCl) and then aliquoted, frozen in liquid nitrogen, stored at −80°C.
The test compounds were diluted from mother plates (10 mM in 100% (v/v) DMSO) into daughter plates (200 μM in 2.0% (v/v) DMSO); 5 μL of test compound solution was added to each well (equivalent to a final concentration of 40 μM) of the 96-well assay plate. The first and last rows of the 96-well plate contained the appropriate concentration of DMSO were used as blank control. ATP was dissolved in the assay buffer to give a stock concentration of 2.5 mM and stored at room temperature. A 10 μL aliquot of ATP solution was added to each well to give a final assay concentration of 1 mM. Before the usage, Hsp90 protein was thawed on ice and suspended in chilled assay buffer to a stock concentration of 0.45 mg/mL, and the solution was kept on ice. The incubation was started by adding 10 μL of the stock Hsp90 to each well (except for the background wells which received 10 μL of assay buffer), giving a final assay volume of 25 μL. The plates were shaken for approximately 2 min and incubated for 3 h at 37°C.
The assay procedures were based on the literatures [33]–[35]. […] The reagent is initially dark brown, but on standing for ∼2 h at room temperature changes to a golden yellow and is ready for use. The assay buffer was 100 mM Tris–HCl, 20 mM KCl, 6 mM MgCl2, pH 7.4.
To stop the ATPase reactions, 80 μL of the malachite green reagent was added to each well.

Hsp90 [2] = target: T1, Hsp90; test: ATP hydrolysis inhibition, ADP Hunter Plus (ADP fluorescence) assay; type: biochemical; conditions: by ADP fluorescence assay
Procedure: The first and last rows of the 96-well plate contained the appropriate concentration of DMSO were used as blank control. ATP was dissolved in the assay buffer to give a stock concentration of 2.5 mM and stored at room temperature. A 10 μL aliquot of ATP solution was added to each well to give a final assay concentration of 1 mM. Before the usage, Hsp90 protein was thawed on ice and suspended in chilled assay buffer to a stock concentration of 0.45 mg/mL, and the solution was kept on ice. […] The plates were shaken for approximately 2 min and incubated for 3 h at 37°C. The Discover RX ADP Hunter^TM Plus Assay kit (Discoverx, Fremont, CA) was used following the manufacturer's instructions. ATPase reactions were carried out after 3 h at 37°C temperature in presence of different concentrations of compounds. ADP generation was measured using Varioskan multimode microplate spectrophotometer (540 nm excitation and 620 nm emission). […] The background reaction rate was measured in a reaction lacking enzyme or substrate and subtracted from the experimental rates.

HCT116 = test: Cell morphological assessment (DAPI staining, apoptosis); type: cell-based; conditions: HCT116, 2, 5, 10 μM, 24 h
Procedure: (§1) To detect morphological evidence of apoptosis, HCT116, MCF-7 and SKBR3 cell nuclei were visualized following DNA staining with the fluorescent dye DAPI. Briefly, cells were seeded at a concentration of 1×10^5 cells/well in 6-well tissue culture plates and treated with indicated concentration of S13. At the end of incubation, the morphology of cells was monitored under an inverted light microscope. Cells were then fixed with 4% paraform for 20 min and washed with PBS, and then incubated with DAPI (1 μg/ml) for 10 min. After washed with PBS, cells were observed using fluorescent microscopy (Olympus, Japan) with a peak excitation wave length of 340 nm.

MCF-7 = test: as above; type: cell-based
Procedure: as §1

SKBR3 = test: as above; type: cell-based; conditions: SK-BR3, 2, 5, 10 μM, 24 h
Procedure: as §1

MCF-7 cells = test: Western-Blot analysis of Hsp90 client proteins and Hsp70; type: cell-based; conditions: MCF-7, 36 h
Procedure: MCF-7 cells were pretreated with various concentrations of the test compounds. After stimulation, cells were collected; lysed in lysis buffer [50 mM Tris-Cl, pH 7.6, 150 Mm NaCl, 1 mM EDTA, 1% (m/v) Nonidet P-40 (NP-40), 0.2 mM Phenylmethanesulfonyl fluoride (PMSF), 0.1 mM NaF and 1.0 mM dithiothreitol (DTT)], and the supernatant was obtained after centrifugation at 13,000× g for 10 min at 4°C. The concentration of protein in the supernatants was measured by the bicinchoninic acid (BCA) assay. Then equal amounts of protein (50 μg) were separated by 8% or 10% sodium dodecyl sulfate polyacrylamide gel electrophoresis (SDS-PAGE) and transferred onto the PVDF membranes (Millipore, Billerica, MA). The blots were incubated with specific antibodies against the indicated primary antibodies overnight at 4°C followed by IRDyeTM800-conjugated secondary antibody for 1 h at 37°C. Detection was performed by the Odyssey Infrared Imaging System (LI-COR; Lincoln, NE). All blots were stripped and incubated with polyclonal anti-β-actin antibody to ascertain equal loading of proteins.

IC50 (Hsp90 [1]): 3.89 ± 0.54 µM
IC50 (Hsp90 [2]): 2.83 µM
Structure (SMILES): COc1ccccc1N1CCN(CC(O)COCCOc2ccc(Br)cc2)CC1 (centres unmarked) [Compound S13]
apoptosis-induced effects (HCT116): dose-dependent
apoptosis induced (MCF-7; 10 μM, MCF-7 cells): over 50%
apoptosis-induced effects (MCF-7; MCF-7, 2, 5, 10 μM, 24 h): dose-dependent
apoptosis-induced effects (SKBR3): dose-dependent
Hsp70 expression (MCF-7 cells): up-regulates
depletion of Hsp90-dependent client proteins (Her2, Src, Akt, ERK, c-Raf, Hif-1α) (MCF-7 cells): concentration-dependent
